Measured values taken from PMC8876855, “AsKC11, a Kunitz Peptide from Anemonia sulcata, Is a Novel Activator of G Protein-Coupled Inward-Rectifier Potassium Channels” (Marine Drugs, 2022).
Bridges are numbered along the chain shown (N, C = ends). Where no end group is shown, it is not given here.

Tests used:
GIRK1/2 channels = conditions: cited from earlier work
Source text: (§1) To better understand the potential of activating neuronal GIRK1/2 channels for therapeutic intervention, selective and potent activators have been developed for GIRK channels. […] These activators are weak and nonspecific since they exert effects in the millimolar range and target several types of ion channels at the same range of concentrations. Thus, early investigation of the pathological and physiological relevance of GIRK channels was hampered partly by the lack of potent and selective probes. ...

GIRK2 channel = conditions: ref [2],[16]; cited from earlier work
Source text: These activators are weak and nonspecific since they exert effects in the millimolar range and target several types of ion channels at the same range of concentrations. Thus, early investigation of the pathological and physiological relevance of GIRK channels was hampered partly by the lack of potent and selective probes. ...

[1] = cited from earlier work
Source text: To better understand the potential of activating neuronal GIRK1/2 channels for therapeutic intervention, selective and potent activators have been developed for GIRK channels. […] Howeve ...

GIRK channels = conditions: ref [3],[38],[46]; cited from earlier work
Source text: as §1

mGIRK1/2 [2] = target: T1, mGIRK1/2 (Mus musculus, UniProt P48542+P63250); assay: TEVC, K+ current enhancement through GIRK1/2 expressed in Xenopus oocytes; assay type: cell-based; conditions: 48 μM AsKC11; heterotetrameric GIRK1/2 in oocytes; mean ± SD, n = 4; data not shown
T1 construct: expressed in transfected cells; host or cells: Xenopus laevis oocytes injected with cRNA
T1 sequence (P63250 1-501): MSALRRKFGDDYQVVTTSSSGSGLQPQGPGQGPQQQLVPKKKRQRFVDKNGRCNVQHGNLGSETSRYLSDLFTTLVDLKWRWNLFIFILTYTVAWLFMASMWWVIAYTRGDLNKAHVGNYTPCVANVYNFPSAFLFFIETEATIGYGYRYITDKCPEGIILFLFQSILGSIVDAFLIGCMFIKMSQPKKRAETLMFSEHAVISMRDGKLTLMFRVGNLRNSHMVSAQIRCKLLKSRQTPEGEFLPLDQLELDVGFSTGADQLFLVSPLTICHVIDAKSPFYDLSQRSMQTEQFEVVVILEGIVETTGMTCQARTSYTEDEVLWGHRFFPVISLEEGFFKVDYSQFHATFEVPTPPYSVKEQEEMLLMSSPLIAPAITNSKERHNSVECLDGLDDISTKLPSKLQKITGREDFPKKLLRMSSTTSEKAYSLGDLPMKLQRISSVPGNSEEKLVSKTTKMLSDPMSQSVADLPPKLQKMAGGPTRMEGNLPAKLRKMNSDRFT
T1 sequence (P48542 1-425): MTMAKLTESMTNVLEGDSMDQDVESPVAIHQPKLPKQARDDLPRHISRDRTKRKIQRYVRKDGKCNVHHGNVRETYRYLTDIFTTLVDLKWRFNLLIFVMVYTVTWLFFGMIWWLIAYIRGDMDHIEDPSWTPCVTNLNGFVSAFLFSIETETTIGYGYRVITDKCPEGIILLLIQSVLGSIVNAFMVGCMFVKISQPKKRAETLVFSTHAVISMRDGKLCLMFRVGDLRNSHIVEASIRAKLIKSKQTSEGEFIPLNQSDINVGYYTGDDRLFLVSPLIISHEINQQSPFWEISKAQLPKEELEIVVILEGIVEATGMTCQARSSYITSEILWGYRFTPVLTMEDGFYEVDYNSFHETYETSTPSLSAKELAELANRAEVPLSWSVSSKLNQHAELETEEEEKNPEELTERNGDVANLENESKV
Source text: To identify the novel activator of GIRK1/2 channels, we first tested the effects of venom fractions previously purified from the venom of Anemonia sulcata on whole-cell currents in oocytes expressing GIRK1/2 channels. […] The oocytes coinjected with GIRK1/2 cRNA were voltage-clamped at −90 mV. To increase the GIRK current at the negative potential, a high-potassium extracellular buffer (HK) was used, which allowed for more obvious currents and accurate measurement. Thus, after exchanging ND96 to HK, basal K^+ currents (IK,basal) were observed and were carried by GIRK1/2 channels (Figure 1a).
The potency of AsKC11 to enhance inward K^+ currents through GIRK1/2 channels was studied by applying increasing concentrations of AsKC11 (2.4, 12, 24, and 48 µM) to oocytes expressing GIRK1/2 channels. These oocytes were subjected to a 1-s voltage ramp protocol from −150 to +60 mV from a holding potential of −20 mV.
All procedures for the use and handling of adult female Xenopus laevis frogs (CRB Xénopes, Rennes, France) were approved by the Animal Ethics Committee of the KU Leuven (Project No. P186/2019) following regulations of the European Union (EU) concerning the welfare of laboratory animals, as declared in Directive 2010/63/EU. […] After recovery from anesthesia, frogs were returned to their tanks in the Aquatic Facility of KU Leuven and were monitored daily. […]

mGIRK1/2 [3] = target: T1, mGIRK1/2; assay: Kinetics and affinity of AsKC11 on GIRK1/2 channels (wash-in/wash-out, bimolecular scheme); assay type: cell-based
Source text: As shown in the abovementioned results, AsKC11 binding was reversible. We next explored whether the AsKC11-elicited activation of GIRK1/2 channels followed a kinetic behavior of a simple bimolecular reaction. The current activation upon AsKC11 application and recovery upon AsKC11 removal followed a single exponential time course compatible with a bimolecular reaction scheme (See Section 4).
For the expression of potassium channels (hKV1.1, hKV1.2, hKV1.3, rKV1.4, rKV1.6, and mGIRK1/2, mGIRK2 alone, or IRK1) in Xenopus oocytes, the linearized plasmids were transcribed using the T3, T7, or SP6 mMESSAGEmMACHINE transcription kit (Ambion, Austin, TX, USA). Following the cRNA injection into oocytes and 1–4 days of incubation at 16 °C, electrophysiological experiments were conducted using the two-electrode voltage-clamp (TEVC) GeneClamp 500B (Axon Instruments, San Jose, CA, USA). Electrodes were fabricated from borosilicate glass tubes (1.14 mm outside diameter, 0.7 mm inside diameter) by a programmable microelectrode puller, PUL-1 (World Precision Instruments, Sarasota, FL, USA). Electrodes were filled with 3 M KCl and had tip resistances from 0.8 to 1.5 MΩ. […]

GIRK1/2 channel = target: T2, GIRK1/2 channel (Mus musculus, UniProt P63250); assay: two-electrode voltage clamp kinetics (koff/kon) in Xenopus oocytes
T2 chain 1: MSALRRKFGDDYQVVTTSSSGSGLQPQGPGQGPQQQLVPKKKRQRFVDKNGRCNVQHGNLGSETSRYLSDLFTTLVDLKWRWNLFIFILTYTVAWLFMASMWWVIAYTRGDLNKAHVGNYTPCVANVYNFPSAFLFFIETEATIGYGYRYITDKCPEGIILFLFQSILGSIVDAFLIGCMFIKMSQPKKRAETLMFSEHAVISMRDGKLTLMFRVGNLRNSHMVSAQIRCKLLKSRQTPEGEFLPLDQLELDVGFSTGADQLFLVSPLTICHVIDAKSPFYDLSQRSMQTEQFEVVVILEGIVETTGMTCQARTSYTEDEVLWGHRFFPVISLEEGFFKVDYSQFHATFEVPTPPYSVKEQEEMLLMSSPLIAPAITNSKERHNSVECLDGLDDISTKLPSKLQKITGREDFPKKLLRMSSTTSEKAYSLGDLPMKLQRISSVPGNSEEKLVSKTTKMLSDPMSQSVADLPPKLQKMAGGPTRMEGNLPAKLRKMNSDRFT
T2 chain 2: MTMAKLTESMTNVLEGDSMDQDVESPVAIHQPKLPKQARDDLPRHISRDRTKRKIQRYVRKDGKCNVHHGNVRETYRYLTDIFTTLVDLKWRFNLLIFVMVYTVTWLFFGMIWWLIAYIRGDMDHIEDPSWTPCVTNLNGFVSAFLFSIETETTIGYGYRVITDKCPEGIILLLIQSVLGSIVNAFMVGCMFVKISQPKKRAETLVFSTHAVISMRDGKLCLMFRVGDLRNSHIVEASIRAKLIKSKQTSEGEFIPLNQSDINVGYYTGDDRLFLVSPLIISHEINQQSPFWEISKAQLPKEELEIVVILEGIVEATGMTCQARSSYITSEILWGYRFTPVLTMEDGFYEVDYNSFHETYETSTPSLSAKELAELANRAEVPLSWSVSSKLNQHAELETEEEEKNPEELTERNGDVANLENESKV

For Cc1cc(NC(=O)Nc2ccc(F)c(F)c2)n(-c2ccccc2)n1 [ML297], the “affinity of activity on GIRK1/2” value (GIRK1/2 channels; ref [2],[5],[16]) is given as “nanomolar range”, the “requirement for GIRK1/2 activation” value (GIRK1/2 channels; ref [2]) is given as “required the presence of the membrane phospholipid phosphatidylinositol 4,5-bisphosphate instead of Gi/o” and the “effect on GIRK2 channel” value (GIRK2 channel) is given as “not affect the GIRK2 channel”. For the same molecule, the “effects in animal models” value ([1]; ref [2],[16]) was “antiepileptic and anxiolytic effects in animal models” and the “pharmacokinetic properties” value ([1]; ref [2]) was “suboptimal”.

For CCO [ethanol], the “potency for activating GIRK channels” value (GIRK channels) is given as “very low potency”.

In the case of C[C@@H]1O[C@@H](O[C@H]2[C@H](Oc3cc(O)c4c(c3)O[C@H](c3ccc(O)cc3)CC4=O)O[C@H](CO)[C@@H](O)[C@@H]2O)[C@H](O)[C@H](O)[C@H]1O [naringin], the “potency for activating GIRK channels” value (GIRK channels) is listed as “very low potency”.

With “INKDCLLPKVVGFCRARFPRYYYNSSSRRCEKFIYGGCGGNANNFSSYYECHIKCFGPR (disulfide 5-55, 14-38, 30-51) [AsKC11]” the “enhancement in inward K+ currents, GIRK1/2” value (mGIRK1/2 [2]) was 74.1 ± 12.5%, the koff (mGIRK1/2 [3]; 48 μM AsKC11, wash-out, read-out: first-order dissociation rate constant (koff = β)) was 0.00633 s⁻¹ and the kon (mGIRK1/2 [3]; 48 μM AsKC11, read-out: second-order association rate constant (α)) was 78.2 M⁻¹ s⁻¹.

B1: AsKC11 (protein)
chain: INKDCLLPKVVGFCRARFPRYYYNSSSRRCEKFIYGGCGGNANNFSSYYECHIKCFGPR
Molecule B1 has a Kd (GIRK1/2 channel) of 80.9 µM.
